Measured values taken from patent publication US20210122730A1, “GLUCOCORTICOID RECEPTOR MODULATORS” (ORIC Pharmaceuticals, Inc., priority 2017, published 2021).

target: T1, GR (Homo sapiens, UniProt P04150); experiment: In Vitro GR Luciferase Reporter Assay (antagonist mode, CHO-K1-GR-MMTV-Luc reporter cells); type: cell-based; details: antagonist mode, 10 nM Dexamethasone
T1 construct: expressed in transfected cells; host or cells: CHO-K1
T1 sequence (P04150 1-777): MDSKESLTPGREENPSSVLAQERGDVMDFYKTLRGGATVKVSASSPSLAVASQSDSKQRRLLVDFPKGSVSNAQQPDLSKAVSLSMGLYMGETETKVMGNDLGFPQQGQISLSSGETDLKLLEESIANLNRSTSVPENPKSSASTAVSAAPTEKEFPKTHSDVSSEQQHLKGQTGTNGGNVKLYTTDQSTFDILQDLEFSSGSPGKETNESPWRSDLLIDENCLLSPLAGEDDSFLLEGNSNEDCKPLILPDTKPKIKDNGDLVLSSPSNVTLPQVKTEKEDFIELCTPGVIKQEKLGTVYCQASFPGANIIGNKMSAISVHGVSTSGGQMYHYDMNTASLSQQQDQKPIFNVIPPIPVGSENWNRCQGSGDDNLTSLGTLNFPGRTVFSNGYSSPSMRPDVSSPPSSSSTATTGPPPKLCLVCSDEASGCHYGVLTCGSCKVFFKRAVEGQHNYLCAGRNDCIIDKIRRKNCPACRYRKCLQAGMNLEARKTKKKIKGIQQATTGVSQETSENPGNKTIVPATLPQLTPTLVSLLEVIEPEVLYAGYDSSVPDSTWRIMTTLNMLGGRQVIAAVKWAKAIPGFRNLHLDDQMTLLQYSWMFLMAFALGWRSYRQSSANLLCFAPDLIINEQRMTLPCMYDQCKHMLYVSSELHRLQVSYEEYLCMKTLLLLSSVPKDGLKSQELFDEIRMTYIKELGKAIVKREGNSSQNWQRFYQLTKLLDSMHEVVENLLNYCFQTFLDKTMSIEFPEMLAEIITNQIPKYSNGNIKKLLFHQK
Method in brief: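 Antagonist mode: compounds (8 serial 1:5 dilutions) added to GR-MMTV-luciferase CHO-K1 reporter cells co-exposed to 10 nM dexamethasone final, in phenol red-free DMEM plus 10% CSS. After roughly 18-24 h at 37° C, OneGlo luminescence read and IC50 calculated.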

IC50, ≤ 100 nM:
CC(C)(O)CN([C@H]1CCC2=Cc3c(cnn3-c3ccc(F)cc3)C[C@]2(C(=O)c2cc(C(F)(F)F)ccn2)C1)S(=O)(=O)c1ccc(Cl)nc1 [Example 302, 6-chloro-N-((4aS,6S)-1-(4-fluorophenyl)-4a-(4-(trifluoromethyl)picolinoyl)-4,4a,5,6,7,8-hexahydro-1H-benzo[f]indazol-6-yl)-N-(2-hydroxy-2-methylpropyl)pyridine-3-sulfonamide]
CC(C)(O)CN([C@H]1CCC2=Cc3c(cnn3-c3ccc(F)cc3)C[C@]2(C(=O)c2ncc(C(F)(F)F)s2)C1)S(=O)(=O)c1ccc(Cl)nc1 [Example 303, 6-chloro-N-((4aS,6S)-1-(4-fluorophenyl)-4a-(5-(trifluoromethyl)thiazole-2-carbonyl)-4,4a,5,6,7,8-hexahydro-1H-benzo[f]indazol-6-yl)-N-(2-hydroxy-2-methylpropyl)pyridine-3-sulfonamide]
CC(C)(O)CN([C@H]1CCC2=Cc3c(cnn3-c3ccc(F)cc3)C[C@]2(C(=O)c2cc(F)ccn2)C1)S(=O)(=O)c1ccc(Cl)nc1 [Example 304, 6-chloro-N-((4aS,6S)-1-(4-fluorophenyl)-4a-(4-fluoropicolinoyl)-4,4a,5,6,7,8-hexahydro-1H-benzo[f]indazol-6-yl)-N-(2-hydroxy-2-methylpropyl)pyridine-3-sulfonamide]
Cn1cc(S(=O)(=O)[C@H]2CCC3=Cc4c(cnn4-c4ccc(F)cc4)C[C@]3(C(=O)c3cc(F)ccn3)C2)cn1 [Example 314, ((4aS,6S)-1-(4-fluorophenyl)-6-((1-methyl-1H-pyrazol-4-yl)sulfonyl)-1,4,5,6,7,8-hexahydro-4aH-benzo[f]indazol-4a-yl)(4-fluoropyridin-2-yl)methanone]
Cn1cnc(S(=O)(=O)N(CC2CC2)[C@H]2CCC3=Cc4c(cnn4-c4ccc(F)cc4)C[C@]3(C(=O)c3cc(C(F)(F)F)ccn3)C2)n1 [Example 316, N-(cyclopropylmethyl)-N-((4aS,6S)-1-(4-fluorophenyl)-4a-(4-(trifluoromethyl)picolinoyl)-4,4a,5,6,7,8-hexahydro-1H-benzo[f]indazol-6-yl)-1-methyl-1H-1,2,4-triazole-3-sulfonamide]
Cn1cc(S(=O)(=O)[C@H]2CCC3=Cc4c(cnn4-c4ccc(F)cc4)C[C@]3(C(=O)c3cc(Cl)ccn3)C2)cn1 [Example 317, (4-chloropyridin-2-yl)((4aS,6S)-1-(4-fluorophenyl)-6-((1-methyl-1H-pyrazol-4-yl)sulfonyl)-1,4,5,6,7,8-hexahydro-4aH-benzo[f]indazol-4a-yl)methanone]
Cn1cc(S(=O)(=O)N(CC(F)(F)F)[C@H]2CCC3=Cc4c(cnn4-c4ccc(F)cc4)C[C@]3(C(=O)c3cc(C(F)(F)F)ccn3)C2)nn1 [Example 318, N-((4aS,6S)-1-(4-fluorophenyl)-4a-(4-(trifluoromethyl)picolinoyl)-4,4a,5,6,7,8-hexahydro-1H-benzo[f]indazol-6-yl)-1-methyl-N-(2,2,2-trifluoroethyl)-1H-1,2,3-triazole-4-sulfonamide]
CC(C)N([C@H]1CCC2=Cc3c(cnn3-c3ccc(F)cc3)C[C@]2(C(=O)c2cc(Cl)ccn2)C1)S(=O)(=O)c1ccc(Cl)nc1 [Example 323, 6-chloro-N-((4aS,6S)-4a-(4-chloropicolinoyl)-1-(4-fluorophenyl)-4,4a,5,6,7,8-hexahydro-1H-benzo[f]indazol-6-yl)-N-isopropylpyridine-3-sulfonamide]
Cc1nc(S(=O)(=O)N(C2CC2)[C@H]2CCC3=Cc4c(cnn4-c4ccc(F)cc4)C[C@]3(C(=O)c3ncc(C(F)(F)F)s3)C2)cn1C [Example 336, N-cyclopropyl-N-((4aS,6S)-1-(4-fluorophenyl)-4a-(5-(trifluoromethyl)thiazole-2-carbonyl)-4,4a,5,6,7,8-hexahydro-1H-benzo[f]indazol-6-yl)-1,2-dimethyl-1H-imidazole-4-sulfonamide]
Cn1cc(S(=O)(=O)CC2CCC3=Cc4c(cnn4-c4ccc(F)cc4)C[C@]3(C(=O)c3ccc(C(F)(F)F)cn3)C2)cn1 (stereo partly drawn) [Example 340, ((4aR)-1-(4-fluorophenyl)-6-(((1-methyl-1H-pyrazol-4-yl)sulfonyl)methyl)-1,4,5,6,7,8-hexahydro-4aH-benzo[f]indazol-4a-yl)(5-(trifluoromethyl)pyridin-2-yl)methanone]
C[C@]1(O)C[C@@H](N([C@H]2CCC3=Cc4c(cnn4-c4ccc(F)cc4)C[C@]3(C(=O)c3cc(F)ccn3)C2)S(=O)(=O)c2ccc(F)cc2)C1 [Example 343, 4-fluoro-N-((4aS,6S)-1-(4-fluorophenyl)-4a-(4-fluoropicolinoyl)-4,4a,5,6,7,8-hexahydro-1H-benzo[f]indazol-6-yl)-N-((1s,3R)-3-hydroxy-3-methylcyclobutyl)benzenesulfon-amide]
Cn1ccc(S(=O)(=O)N(CC(F)F)[C@H]2CCC3=Cc4c(cnn4-c4ccc(F)cc4)C[C@]3(C(=O)c3cc(Cl)ccn3)C2)n1 [Example 345, N-((4aS,6S)-4a-(4-chloropicolinoyl)-1-(4-fluorophenyl)-4,4a,5,6,7,8-hexahydro-1H-benzo[f]indazol-6-yl)-N-(2,2-difluoroethyl)-1-methyl-1H-pyrazole-3-sulfonamide]
O=C(c1cc(F)ccn1)[C@]12Cc3cnn(-c4ccc(F)cc4)c3C=C1CC[C@H](N(CC(F)F)S(=O)(=O)c1ccc(Cl)nc1)C2 [Example 351, 6-chloro-N-(2,2-difluoroethyl)-N-((4aS,6S)-1-(4-fluorophenyl)-4a-(4-fluoropicolinoyl)-4,4a,5,6,7,8-hexahydro-1H-benzo[f]indazol-6-yl)pyridine-3-sulfonamide]
O=C(c1cc(Cl)ccn1)[C@]12Cc3cnn(-c4ccc(F)cc4)c3C=C1CC[C@H](N(CC(F)F)S(=O)(=O)c1ccc(Cl)nc1)C2 [Example 352, 6-chloro-N-((4aS,6S)-4a-(4-chloropicolinoyl)-1-(4-fluorophenyl)-4,4a,5,6,7,8-hexahydro-1H-benzo[f]indazol-6-yl)-N-(2,2-difluoroethyl)pyridine-3-sulfonamide]
Cn1ccc(S(=O)(=O)CC2CCC3=Cc4c(cnn4-c4ccc(F)cc4)C[C@]3(C(=O)c3cc(C(F)(F)F)ccn3)C2)n1 (stereo partly drawn) [Example 353, ((4aR)-1-(4-fluorophenyl)-6-(((1-methyl-1H-pyrazol-3-yl)sulfonyl)methyl)-1,4,5,6,7,8-hexahydro-4aH-benzo[f]indazol-4a-yl)(4-(trifluoromethyl)pyridin-2-yl)methanone]
Cn1ccc(S(=O)(=O)CC2CCC3=Cc4c(cnn4-c4ccc(F)cc4)C[C@]3(C(=O)c3ccc(C(F)(F)F)cn3)C2)n1 (stereo partly drawn) [Example 360, ((4aR)-1-(4-fluorophenyl)-6-(((1-methyl-1H-pyrazol-3-yl)sulfonyl)methyl)-1,4,5,6,7,8-hexahydro-4aH-benzo[f]indazol-4a-yl)(5-(trifluoromethyl)pyridin-2-yl)methanone]
Cn1ccc(S(=O)(=O)CC2CCC3=Cc4c(cnn4-c4ccc(F)cc4)C[C@]3(C(=O)c3ncc(C(F)(F)F)s3)C2)n1 (stereo partly drawn) [Example 361, ((4aR)-1-(4-fluorophenyl)-6-(((1-methyl-1H-pyrazol-3-yl)sulfonyl)methyl)-1,4,5,6,7,8-hexahydro-4aH-benzo[f]indazol-4a-yl)(5-(trifluoromethyl)thiazol-2-yl)methanone]
